Consider 22 compounds from US9120804B2, “8-substituted 2-amino-[1,2,4] triazolo [1, 5-A] pyrazines as Syk tryrosine kinase inhibitors and GCN2 serin kinase inhibitors” (Merck Patent GmbH, priority 2012, dated 2015).

By IC50 is commonly meant the concentration needed to halve the response being measured.

One assay deals with T1, SYK (Homo sapiens, UniProt P43405).
T1 construct: 2.5 nM SYK, 400 nM Biotin-Aha-Aha-KEDPDYEWPSAKK
The assay can be described thus: SYK flash plate assay (enzyme assay). The format is biochemical. The essentials: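 Radiometric Flashplate format: biotinylated peptide substrate (400 nM) and 33P-labelled ATP (10 μM) react with 2.5 nM enzyme for 1 hour at 30 °C in Hepes buffer, pH 7.5. After EDTA quench and washing, counts are taken; staurosporine defines non-specific signal, and IC50 values are derived.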

The target of the next assay is GCN2 (Homo sapiens, UniProt Q9P2K8). The assay can be described thus: GCN2 enzyme assay. It is filed as biochemical.

A value given as a limit tells only on which side of the number the result lay.

Chain of GCN2 (Q9P2K8 whole entry): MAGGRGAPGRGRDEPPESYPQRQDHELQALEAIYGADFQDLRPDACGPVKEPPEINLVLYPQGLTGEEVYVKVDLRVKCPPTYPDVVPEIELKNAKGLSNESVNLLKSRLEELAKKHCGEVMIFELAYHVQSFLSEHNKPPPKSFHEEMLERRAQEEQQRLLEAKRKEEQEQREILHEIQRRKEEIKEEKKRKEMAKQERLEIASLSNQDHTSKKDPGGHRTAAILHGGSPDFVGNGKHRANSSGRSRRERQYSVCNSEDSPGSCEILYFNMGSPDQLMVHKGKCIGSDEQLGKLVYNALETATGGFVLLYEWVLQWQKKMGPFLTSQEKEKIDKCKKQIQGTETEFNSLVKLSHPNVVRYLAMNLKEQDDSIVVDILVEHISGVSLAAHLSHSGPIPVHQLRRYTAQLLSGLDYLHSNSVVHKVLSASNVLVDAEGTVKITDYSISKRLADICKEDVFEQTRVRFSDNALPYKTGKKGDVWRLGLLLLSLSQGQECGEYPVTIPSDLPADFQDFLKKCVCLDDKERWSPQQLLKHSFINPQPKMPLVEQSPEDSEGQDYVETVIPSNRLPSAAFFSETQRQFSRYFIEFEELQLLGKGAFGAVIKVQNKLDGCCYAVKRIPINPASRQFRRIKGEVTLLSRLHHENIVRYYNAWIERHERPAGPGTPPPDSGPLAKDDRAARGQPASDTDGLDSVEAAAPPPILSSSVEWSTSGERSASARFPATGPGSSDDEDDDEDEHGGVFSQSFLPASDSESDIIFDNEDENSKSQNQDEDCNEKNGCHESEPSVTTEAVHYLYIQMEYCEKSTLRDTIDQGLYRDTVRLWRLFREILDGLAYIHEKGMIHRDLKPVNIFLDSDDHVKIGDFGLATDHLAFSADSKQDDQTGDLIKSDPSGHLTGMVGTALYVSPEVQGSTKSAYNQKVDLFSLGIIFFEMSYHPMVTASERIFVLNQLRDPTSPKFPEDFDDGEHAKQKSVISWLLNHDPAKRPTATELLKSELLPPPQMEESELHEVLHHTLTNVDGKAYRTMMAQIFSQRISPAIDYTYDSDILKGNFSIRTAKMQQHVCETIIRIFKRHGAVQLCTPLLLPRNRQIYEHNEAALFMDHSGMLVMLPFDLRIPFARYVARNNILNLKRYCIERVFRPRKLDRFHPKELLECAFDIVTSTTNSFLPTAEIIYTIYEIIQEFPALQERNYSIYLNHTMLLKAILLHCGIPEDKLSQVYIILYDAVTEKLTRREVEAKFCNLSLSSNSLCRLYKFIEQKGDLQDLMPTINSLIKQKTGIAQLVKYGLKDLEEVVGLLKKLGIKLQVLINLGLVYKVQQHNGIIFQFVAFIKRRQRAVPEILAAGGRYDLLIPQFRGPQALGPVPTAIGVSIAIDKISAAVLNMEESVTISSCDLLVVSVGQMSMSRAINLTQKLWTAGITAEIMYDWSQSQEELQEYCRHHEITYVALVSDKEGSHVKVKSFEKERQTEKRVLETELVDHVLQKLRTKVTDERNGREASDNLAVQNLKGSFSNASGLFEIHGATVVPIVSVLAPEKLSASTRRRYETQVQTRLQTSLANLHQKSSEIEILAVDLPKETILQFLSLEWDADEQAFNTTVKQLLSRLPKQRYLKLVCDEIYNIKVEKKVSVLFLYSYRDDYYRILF

Take `Cc1nc2cc(Nc3nc4c(-c5ccc(CN6CCOCC6)cc5)nccn4n3)ccc2[nH]1` [C57, (2-methyl-1H-benzoimidazol-5-yl)-[8-(4-morpholin-4-ylmethyl-phenyl)-[1,2,4]triazolo[1,5-a]pyrazin-2-yl]-amine]: the values for the IC50 at SYK and against GCN2 were 3 to 50 µM and 0.3 to 3 µM, respectively.

For `COc1cc(Nc2nc3c(N4CCN(C)CC4c4ccccc4)nccn3n2)cc(OC)c1` (centres unmarked) [C55, (3,5-dimethoxy-phenyl)-[8-(4-methyl-2-phenyl-piperazin-1-yl)-[1,2,4]triazolo[1,5-a]pyrazin-2-yl]-amine], the IC50 on SYK fell in the range of 0.3 to 3 µM; on GCN2 it was 3 to 50 µM.

For the compound `CC1(C)C(=O)Nc2cc(Nc3nc4c(N5CC[C@H](N)C5)nccn4n3)ccc21` [C86, 6-[8-((S)-3-amino-pyrrolidin-1-yl)-[1,2,4]triazolo[1,5-a]pyrazin-2-ylamino]-3,3-dimethyl-1,3-dihydro-indol-2-one], the IC50 on SYK fell in the range of 0.3 to 3 µM; on GCN2, 3 to 50 µM.

For the compound `CC(C)C1(C(C)C)OC(=O)Nc2cc(Nc3nc4c(-c5cnn(C)c5)nccn4n3)ccc21` [C119, 4,4-diisopropyl-7-[8-(1-methyl-1H-pyrazol-4-yl)-[1,2,4]triazolo[1,5-a]pyrazin-2-ylamino]-1,4-dihydro-benzo[d][1,3]oxazin-2-one], the IC50 on SYK fell in the range of 0.1 to 0.3 µM; against GCN2, 3 to 50 µM.

For `Cn1cc(-c2nccn3nc(Nc4ccc(S(C)(=O)=O)cc4)nc23)cn1` [C23, (4-Methanesulfonyl-phenyl)-[8-(1-methyl-1H-pyrazol-4-yl)-[1,2,4]triazolo[1,5-a]pyrazin-2-yl]-amine], the IC50 against SYK fell in the range of 0.3 to 3 µM; against GCN2, 3 to 50 µM.

For `Cc1nc2cc(Nc3nc4c(-c5ccc(C(=O)N6CCOCC6)cc5)nccn4n3)ccc2[nH]1` [C48, {4-[2-(2-methyl-1H-benzoimidazol-5-ylamino)-[1,2,4]triazolo[1,5-a]pyrazin-8-yl]-phenyl}-morpholin-4-yl-methanone], the IC50 fell in the range of 3 to 50 µM at SYK and 0.3 to 3 µM at GCN2.

On to `Cn1cc(-c2nccn3nc(Nc4ccc5c(c4)NC(=O)C5(C)C)nc23)cn1` [C34, 3,3-Dimethyl-6-[8-(1-methyl-1H-pyrazol-4-yl)-[1,2,4]triazolo[1,5-a]pyrazin-2-ylamino]-1,3-dihydro-indol-2-one], for which the values for the IC50 against SYK and against GCN2 were less than 0.1 µM and 3 to 50 µM, respectively.

Regarding `CN(C)Cc1nc2ccc(Nc3nc4c(-c5cnn(C)c5)nccn4n3)cc2[nH]1` [C33, (2-Dimethylaminomethyl-3H-benzoimidazol-5-yl)-[8-(1-methyl-1H-pyrazol-4-yl)-[1,2,4]triazolo[1,5-a]pyrazin-2-yl]-amine], the IC50 lay within 0.1 to 0.3 µM on SYK and 0.3 to 3 µM against GCN2.

On to `Cn1cc(Nc2nc3c(-c4cnn(C)c4)nccn3n2)cn1` [C26, (1-Methyl-1H-pyrazol-4-yl)-[8-(1-methyl-1H-pyrazol-4-yl)-[1,2,4]triazolo[1,5-a]pyrazin-2-yl]-amine], for which the IC50 against SYK was 0.3 to 3 µM; against GCN2, 3 to 50 µM.

For `Cn1cc(-c2nccn3nc(Nc4ccc(C5(C(N)=O)CC5)cc4)nc23)cn1` [C64, 1-{4-[8-(1-methyl-1H-pyrazol-4-yl)-[1,2,4]triazolo[1,5-a]pyrazin-2-ylamino]-phenyl}-cyclopropanecarboxylic acid amide], the IC50 against SYK and at GCN2 was 0.3 to 3 µM in each case.

With `Cn1cc(-c2nccn3nc(Nc4ccc5c(c4)NC(=O)C5)nc23)cn1` [C60, 6-[8-(1-methyl-1H-pyrazol-4-yl)-[1,2,4]triazolo[1,5-a]pyrazin-2-ylamino]-1,3-dihydro-indol-2-one], the IC50 on SYK and against GCN2 was 0.3 to 3 µM throughout.

As for `CC1(C)C(=O)Nc2cc(Nc3nc4c(N[C@H]5CCCNC5)nccn4n3)ccc21` [C85, 3,3-dimethyl-6-[8-((S)-piperidin-3-ylamino)-[1,2,4]triazolo[1,5-a]pyrazin-2-ylamino]-1,3-dihydro-indol-2-one], the IC50 against SYK was less than 0.1 µM; against GCN2, 3 to 50 µM.

`COc1cc(Nc2nc3c(N4CCN(C(C)=O)CC4)nccn3n2)cc(OC)c1` [C51, 1-{4-[2-(3,5-dimethoxy-phenylamino)-[1,2,4]triazolo[1,5-a]pyrazin-8-yl]-piperazin-1-yl}-ethanone]: the IC50 against SYK and against GCN2 was 3 to 50 µM each time.

For the compound `COc1ccc(Nc2nc3c(-c4cnn(C)c4)nccn3n2)cc1OC` [C6, (3,4-Dimethoxy-phenyl)-[8-(1-methyl-1H-pyrazol-4-yl)-[1,2,4]triazolo[1,5-a]pyrazin-2yl]-amine], the IC50 against SYK and against GCN2 was 0.3 to 3 µM throughout.

Regarding `Cn1cc(-c2nccn3nc(Nc4ccc5c(C(C)(C)O)n[nH]c5c4)nc23)cn1` [C72, 2-{6-[8-(1-methyl-1H-pyrazol-4-yl)-[1,2,4]triazolo[1,5-a]pyrazin-2-ylamino]-1H-indazol-3-yl}-propan-2-ol], the IC50 on SYK is less than 0.1 µM; against GCN2, 0.3 to 3 µM.

`Cn1cc(-c2nccn3nc(Nc4ccc5c(c4)NC(=O)CC5(C)C)nc23)cn1` [C144, 4,4-dimethyl-7-[8-(1-methyl-1H-pyrazol-4-yl)-[1,2,4]triazolo[1,5-a]pyrazin-2-ylamino]-3,4-dihydro-1H-quinolin-2-one]: the IC50 against SYK is less than 0.1 µM; against GCN2, 0.3 to 3 µM.

For `COc1cccc(Nc2nc3c(-c4cnn(C)c4)nccn3n2)c1` [C8, (3-Methoxy-phenyl)-[8-(1-methyl-1H-pyrazol-4-yl)-[1,2,4]triazolo[1,5-a]pyrazin-2-yl]-amine], the IC50 at SYK and at GCN2 was 3 to 50 µM each time.

Regarding `CC(C)C(O)(c1n[nH]c2cc(Nc3nc4c(-c5cnn(C)c5)nccn4n3)ccc12)C(C)C` [C141, 2,4-dimethyl-3-{6-[8-(1-methyl-1H-pyrazol-4-yl)-[1,2,4]triazolo[1,5-a]pyrazin-2-ylamino]-1H-indazol-3-yl}-pentan-3-ol], the IC50 against SYK is less than 0.1 µM; at GCN2, 0.3 to 3 µM.

Take `CC1(C)C(=O)Nc2cc(Nc3nc4c(N5CCC6(COC6)C5)nccn4n3)ccc21` [C81, 3,3-dimethyl-6-[8-(2-oxa-6-aza-spiro[3.4]oct-6-yl)-[1,2,4]triazolo[1,5-a]pyrazin-2-ylamino]-1,3-dihydro-indol-2-one]: the IC50 against SYK is less than 0.1 µM; against GCN2, 3 to 50 µM.

For `Cn1cc(-c2nccn3nc(Nc4ccc(S(N)(=O)=O)cc4)nc23)cn1` [C16, 4-[8-(1-Methyl-1H-pyrazol-4-yl)-[1,2,4]triazolo[1,5-a]pyrazin-2-ylamino]-benzenesulfonamide], the IC50 was in the range of 0.3 to 3 µM against SYK and 3 to 50 µM against GCN2.

`Cn1cc(-c2nccn3nc(Nc4ccc5c(c4)NC(=O)OC5(C)C)nc23)cn1` [C114, 4,4-dimethyl-7-[8-(1-methyl-1H-pyrazol-4-yl)-[1,2,4]triazolo[1,5-a]pyrazin-2-ylamino]-1,4-dihydro-benzo[d][1,3]oxazin-2-one]: the IC50 is less than 0.1 µM at SYK and 0.3 to 3 µM at GCN2.

In the case of `O=C(c1ccc(-c2nccn3nc(Nc4ccc(N5CCOCC5)cc4)nc23)cc1)N1CCOCC1` [C41, morpholin-4-yl-{4-[2-(4-morpholin-4-yl-phenylamino)-[1,2,4]triazolo[1,5-a]pyrazin-8-yl]-phenyl}-methanone], the IC50 against SYK and against GCN2 was 3 to 50 µM throughout.
